# Values quoted from earlier work, collected in patent publication US7514592B2, “Inducible heart attack animal model” (Massachusetts Institute of Technology, priority 2004, dated 2009).
# Test system: SR-BI knockout females
# Details: homozygous SR-BI knockout dams (infertile); administered during the breeding protocol
smiles,measurement,value
CC(C)(Sc1cc(C(C)(C)C)c(O)c(C(C)(C)C)c1)Sc1cc(C(C)(C)C)c(O)c(C(C)(C)C)c1 [probucol],fertility in SR-BI knockout females,restore fertility
